This passage reports MIC results from patent publication US20230203081A1, “LINCOSAMIDE ANTIBIOTICS AND USES THEREOF” (President and Fellows of Harvard College, priority 2020, published 2023).

≈ marks a conversion by molar mass, not a printed value.

Holding throughout (format): cell-based
One test relates to E. coli armA. In words: microbe, parasite or virus in culture. The note with it: Escherichia coli, E. coli armA. The essentials:
(§1)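 Per CLSI, MICs by broth microdilution or agar dilution; strains other than streptococci and anaerobes were sub-cultured overnight at 35° C on blood agar, with a final broth inoculum of 5×10^5 CFU/mL.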

The test system of a further test is E. coli ΔTolC. As to the kind of experiment: microbe, parasite or virus in culture. The settings on record: Escherichia coli, E. coli ΔTolC. In short, it runs like this: as §1
The subject of another test is E. faecium Clinical VRE. In words: MIC (broth microdilution or agar dilution, CLSI). The note with it: Enterococcus faecium; E. faecium Clinical VRE; read-out: MIC. In short, it runs like this: (§2)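 MICs were measured by CLSI broth microdilution or agar dilution over 128-0.06 μg/mL test compound at 2.5% final DMSO, in triplicate. Non-streptococcal, aerobic strains were grown overnight at 35° C on sheep blood agar, suspended in cation-adjusted Mueller-Hinton broth to 0.5 McFarland, and diluted to 5×10^5 CFU/mL.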
(Broth dilution looks for growth in wells or tubes with falling amounts of substance.)

The next test relates to E. faecium Line R & VRE. In words: MIC (broth microdilution or agar dilution, CLSI). The settings on record: Enterococcus faecium, E. faecium Line R & VRE, read-out: MIC. In short, it runs like this: as §2
Another test has as its system E. faecium VRE. In words: MIC (broth microdilution or agar dilution, CLSI). The note with it: Enterococcus faecium; E. faecium VRE; read-out: MIC. The essentials:
as §2

The next test deals with P. aeruginosa ATCC 27853. As to the kind of experiment: MIC (broth microdilution or agar dilution, CLSI). The settings on record: Pseudomonas aeruginosa, ATCC27853; P. aeruginosa ATCC 27853; read-out: MIC. The essentials:
as §2

Another test has as its system S. aureus MRSA. In words: MIC (broth microdilution or agar dilution, CLSI). The note with it: Staphylococcus aureus. In short, it runs like this: as §2
The next test relates to S. aureus cErmA. As to the kind of experiment: MIC (broth microdilution or agar dilution, CLSI). The note with it: Staphylococcus aureus; S. aureus cErmA; read-out: MIC. The essentials:
as §2

Another test relates to A. baumannii ATCC 19606. In words: MIC (broth microdilution or agar dilution, CLSI). The settings on record: Acinetobacter baumannii, ATCC19606; A. baumannii ATCC 19606; read-out: MIC. The essentials: as §1
Another test relates to E. coli ATCC 25922. In words: MIC (broth microdilution or agar dilution, CLSI). The note with it: Escherichia coli, ATCC25922; E. coli ATCC 25922; read-out: MIC. In short, it runs like this:
as §1

A further test deals with E. coli LptD. In words: MIC (broth microdilution or agar dilution, CLSI). The settings on record: Escherichia coli, E. coli LptD; read-out: MIC. The essentials: as §1
In the next test the test system is E. faecalis ATCC 29212. As to the kind of experiment: MIC (broth microdilution or agar dilution, CLSI). The note with it: Enterococcus faecalis, ATCC29212, E. faecalis ATCC 29212; read-out: MIC. In short, it runs like this:
as §1

For test [1], the system named is E. faecalis MMX 847; cErmB. In words: MIC (broth microdilution or agar dilution, CLSI). The note with it: Enterococcus faecalis; E. faecalis MMX 847; cErmB; read-out: MIC. The essentials: as §1
In a further test the test system is K. oxytoca Clinical. As to the kind of experiment: MIC (broth microdilution or agar dilution, CLSI). The note with it: Klebsiella oxytoca; K. oxytoca Clinical; read-out: MIC. The essentials: as §1
Another test has as its system S. aureus ATCC 29213. In words: MIC (broth microdilution or agar dilution, CLSI). The settings on record: Staphylococcus aureus, ATCC29213, S. aureus ATCC 29213; read-out: MIC. In short, it runs like this:
as §1

In a further test the test system is S. aureus ATCC 700699. In words: MIC (broth microdilution or agar dilution, CLSI). The note with it: Staphylococcus aureus, ATCC700699; S. aureus ATCC 700699; read-out: MIC. The essentials: as §1
In test [2] the test system is S. aureus ATCC BAA-1707 (MRSA). As to the kind of experiment: MIC (broth microdilution or agar dilution, CLSI). The settings on record: Staphylococcus aureus; S. aureus ATCC BAA-1707 (MRSA); read-out: MIC. In short, it runs like this:
as §1

A further test concerns S. aureus hVISA. As to the kind of experiment: MIC (broth microdilution or agar dilution, CLSI). The note with it: Staphylococcus aureus; S. aureus hVISA; read-out: MIC. The essentials: as §1
The test system of a further test is S. pneumoniae ATCC 49619. In words: MIC (broth microdilution or agar dilution, CLSI). The settings on record: Streptococcus pneumoniae, ATCC49619, S. pneumoniae ATCC 49619; read-out: MIC. In short, it runs like this:
as §1

The test system of the next test is S. pneumoniae ATCC 6303. In words: MIC (broth microdilution or agar dilution, CLSI). The note with it: Streptococcus pneumoniae, ATCC6303; S. pneumoniae ATCC 6303; read-out: MIC. In short, it runs like this:
as §1

In test [3] the test system is S. pneumoniae MMX 3028 cErmB. As to the kind of experiment: MIC (broth microdilution or agar dilution, CLSI). The settings on record: Streptococcus pneumoniae, MMX3028CERMB; S. pneumoniae MMX 3028 cErmB; read-out: MIC. In short, it runs like this: as §1
Test [4] concerns S. pneumoniae MMX 3031 cMefA. In words: MIC (broth microdilution or agar dilution, CLSI). The settings on record: Streptococcus pneumoniae, MMX3031CMEFA, S. pneumoniae MMX 3031 cMefA; read-out: MIC. The essentials:
as §1

For the next test, the system named is S. pyogenes ATCC 19615. In words: MIC (broth microdilution or agar dilution, CLSI). The note with it: Streptococcus pyogenes, ATCC19615, S. pyogenes ATCC 19615; read-out: MIC. The essentials:
as §1

For test [5], the system named is S. pyogenes MMX 946; cErmB. In words: MIC (broth microdilution or agar dilution, CLSI). The settings on record: Streptococcus pyogenes; S. pyogenes MMX 946; cErmB; read-out: MIC. The essentials: as §1
In test [6] the test system is E. faecalis VRE. As to the kind of experiment: MIC (CLSI), first E. faecalis VRE line of Table 4. The note with it: Enterococcus faecalis; E. faecalis VRE (Table 4, first VRE line); read-out: MIC. Here is the method:
(§3) Minimum inhibitory concentrations (MICs) were determined by broth microdilution method or agar dilution method following the Clinical and Laboratory Standards Institute guidelines. Standard bacterial strains were obtained from American Type Culture Collection (ATCC). Other bacterial strains were obtained from hospitals and commercial sources, so noted in Table 11. Before the start of the MIC experiment, standard and test compound stock solutions were prepared in dimethyl sulfoxide (DMSO, Aldrich D2650) at a stock concentration of 5,120 μg/mL. The compound concentration range typically employed for each experiment was 128-0.06 μg/mL (2.5% final DMSO concentration). Clindamycin was used as a comparator in all experiments and each experiment was performed in triplicate. Specialized procedures were employed for streptococcal and anaerobic strains. All other bacterial strains were sub-cultured on blood agar plates (tryptic soy agar with 5% sheep blood, Hardy Diagnostics) and incubated overnight at 35° C. Organisms were suspended in cation-adjusted Mueller-Hinton broth (CaMHB, BD 212322) and optical density was adjusted to 0.5 McFarland standard. Suspensions were further diluted to obtain a final inoculum of 5×10^5 CFU/mL for broth microdilution experiments.

Test [7] deals with E. faecalis VRE. In words: MIC (CLSI), second E. faecalis VRE line of Table 4. The note with it: Enterococcus faecalis; E. faecalis VRE (Table 4, second VRE line); read-out: MIC. As for the experimental part:
as §3

Test [8] concerns E. faecalis VRE. As to the kind of experiment: MIC (CLSI), third E. faecalis VRE line of Table 4. The note with it: Enterococcus faecalis; E. faecalis VRE (Table 4, third VRE line); read-out: MIC. As for the experimental part: as §3
Another test deals with P. aeruginosa ΔAmex OprM. As to the kind of experiment: MIC (broth microdilution or agar dilution, CLSI). The settings on record: Pseudomonas aeruginosa. The essentials:
as §2

Take `CS[C@H]1O[C@H]([C@H](NC(=O)[C@H]2NC[C@@H]3C[C@H](CC(C)C)CCO[C@H]32)[C@H](C)Sc2ccc(CN(C)C)cc2)[C@H](O)[C@H](O)[C@H]1O` [FSA-09-04-092, (4S,5aS,8S,8aR)-N-((1S,2S)-2-((4-((Dimethylamino)methyl)phenyl)thio)-1-((2R,3R,4S,5R,6R)-3,4,5-trihydroxy-6-(methylthio)tetrahydro-2H-pyran-2-yl)propyl)-4-isobutyloctahydro-2H-oxepino[2,3-c]pyrrole-8-carboxamide]: the MIC against E. coli armA came to 4 µg/mL (≈ 6.39 µM); in the test on E. coli ΔTolC, 0.25 µg/mL (≈ 0.399 µM); in the test on E. faecium Clinical VRE, 1 µg/mL (≈ 1.6 µM); in the test with E. faecium Line R & VRE, 2 µg/mL (≈ 3.2 µM); in the test on E. faecium VRE it was 4 µg/mL (≈ 6.39 µM); in the test on P. aeruginosa ATCC 27853, 64 µg/mL (≈ 102 µM). Also, the MIC in the test with S. aureus MRSA was found to be 0.25 µg/mL (≈ 0.399 µM); with S. aureus cErmA, 4 µg/mL (≈ 6.39 µM); in the test with A. baumannii ATCC 19606, 16 µg/mL (≈ 25.6 µM); in the test on E. coli ATCC 25922 it was 4 µg/mL (≈ 6.39 µM); in the test with E. coli LptD, 0.5 µg/mL (≈ 0.799 µM); in the test on E. faecalis ATCC 29212, 0.25 µg/mL (≈ 0.399 µM). Further, the MIC was 1 µg/mL (≈ 1.6 µM) in [1]; 8 µg/mL (≈ 12.8 µM) with K. oxytoca Clinical; 0.5 µg/mL (≈ 0.799 µM) in the test on S. aureus ATCC 29213; 8 µg/mL (≈ 12.8 µM) with S. aureus ATCC 700699; 0.25 µg/mL (≈ 0.399 µM) in test [2]; 16 µg/mL (≈ 25.6 µM) in the test with S. aureus hVISA. Also, the MIC came to 0.25 µg/mL (≈ 0.399 µM) in the test with S. pneumoniae ATCC 49619; 0.06 µg/mL (≈ 0.0959 µM) in the test with S. pneumoniae ATCC 6303; 0.125 µg/mL (≈ 0.2 µM) in [3]; 0.06 µg/mL (≈ 0.0959 µM) in [4]; 0.25 µg/mL (≈ 0.399 µM) in the test on S. pyogenes ATCC 19615; 0.25 µg/mL (≈ 0.399 µM) in test [5]. Also, the MIC stood at 4 µg/mL (≈ 6.39 µM) in the test with E. faecalis VRE [6], 8 µg/mL (≈ 12.8 µM) in the test with E. faecalis VRE [7] and 4 µg/mL (≈ 6.39 µM) with E. faecalis VRE [8].

As for `C=CC[C@@H]1CCO[C@@H]2[C@H](CN[C@@H]2C(=O)N[C@H]([C@H](C)Cl)[C@H]2OC(SC)[C@H](O)[C@H](O)C2O)C1` (stereo partly drawn) [FSA-10-09-045], the MIC was 8 µg/mL (≈ 16.7 µM) against E. coli armA; 16 µg/mL (≈ 33.4 µM) with E. faecium Line R & VRE; 8 µg/mL (≈ 16.7 µM) in the test on E. faecium VRE; over 128 µg/mL with P. aeruginosa ATCC 27853; 2 µg/mL (≈ 4.18 µM) in the test with P. aeruginosa ΔAmex OprM; 0.06 µg/mL (≈ 0.125 µM) in the test on S. aureus MRSA. Also, the MIC was 16 µg/mL (≈ 33.4 µM) in the test with A. baumannii ATCC 19606; 8 µg/mL (≈ 16.7 µM) in [1]; 8 µg/mL (≈ 16.7 µM) in the test with S. aureus ATCC 700699; 0.06 µg/mL (≈ 0.125 µM) in test [2]; 8 µg/mL (≈ 16.7 µM) with S. aureus hVISA; 0.06 µg/mL (≈ 0.125 µM) in the test with S. pneumoniae ATCC 6303. The MIC amounted to 0.5 µg/mL (≈ 1.04 µM) in test [3]; 0.06 µg/mL (≈ 0.125 µM) in test [4]; 1 µg/mL (≈ 2.09 µM) in test [5]; 16 µg/mL (≈ 33.4 µM) with E. faecalis VRE [6]; 32 µg/mL (≈ 66.8 µM) in the test with E. faecalis VRE [7]; 8 µg/mL (≈ 16.7 µM) with E. faecalis VRE [8].

As for `CCC[C@@H]1CCO[C@@H]2[C@H](CN[C@@H]2C(=O)N[C@H]([C@H](C)Cl)[C@H]2OC(SC)[C@H](O)[C@H](O)C2O)C1` (stereo partly drawn) [FSA-10-09-051], the MIC with E. coli armA was 8 µg/mL (≈ 16.6 µM); with E. faecium Line R & VRE, 8 µg/mL (≈ 16.6 µM); with E. faecium VRE, 4 µg/mL (≈ 8.32 µM); in the test with P. aeruginosa ATCC 27853, over 128 µg/mL; against P. aeruginosa ΔAmex OprM, 2 µg/mL (≈ 4.16 µM); with S. aureus MRSA, 0.06 µg/mL (≈ 0.125 µM). The MIC was determined as 8 µg/mL (≈ 16.6 µM) with A. baumannii ATCC 19606; 4 µg/mL (≈ 8.32 µM) in [1]; 4 µg/mL (≈ 8.32 µM) in the test with S. aureus ATCC 700699; 0.06 µg/mL (≈ 0.125 µM) in test [2]; 8 µg/mL (≈ 16.6 µM) with S. aureus hVISA; 0.06 µg/mL (≈ 0.125 µM) with S. pneumoniae ATCC 6303. Also, the MIC came to 0.25 µg/mL (≈ 0.52 µM) in [3]; 0.06 µg/mL (≈ 0.125 µM) in test [4]; 0.5 µg/mL (≈ 1.04 µM) in test [5]; 8 µg/mL (≈ 16.6 µM) with E. faecalis VRE [6]; 8 µg/mL (≈ 16.6 µM) in the test on E. faecalis VRE [7]; 2 µg/mL (≈ 4.16 µM) in the test with E. faecalis VRE [8].
